Test results from article PMC4104544 (Cell, 2014).

Target: OSBP (oxysterol-binding protein) (Homo sapiens, UniProt P22059)
Experiment: cell-based

OSBP (oxysterol-binding protein), sequence (P22059 2-807): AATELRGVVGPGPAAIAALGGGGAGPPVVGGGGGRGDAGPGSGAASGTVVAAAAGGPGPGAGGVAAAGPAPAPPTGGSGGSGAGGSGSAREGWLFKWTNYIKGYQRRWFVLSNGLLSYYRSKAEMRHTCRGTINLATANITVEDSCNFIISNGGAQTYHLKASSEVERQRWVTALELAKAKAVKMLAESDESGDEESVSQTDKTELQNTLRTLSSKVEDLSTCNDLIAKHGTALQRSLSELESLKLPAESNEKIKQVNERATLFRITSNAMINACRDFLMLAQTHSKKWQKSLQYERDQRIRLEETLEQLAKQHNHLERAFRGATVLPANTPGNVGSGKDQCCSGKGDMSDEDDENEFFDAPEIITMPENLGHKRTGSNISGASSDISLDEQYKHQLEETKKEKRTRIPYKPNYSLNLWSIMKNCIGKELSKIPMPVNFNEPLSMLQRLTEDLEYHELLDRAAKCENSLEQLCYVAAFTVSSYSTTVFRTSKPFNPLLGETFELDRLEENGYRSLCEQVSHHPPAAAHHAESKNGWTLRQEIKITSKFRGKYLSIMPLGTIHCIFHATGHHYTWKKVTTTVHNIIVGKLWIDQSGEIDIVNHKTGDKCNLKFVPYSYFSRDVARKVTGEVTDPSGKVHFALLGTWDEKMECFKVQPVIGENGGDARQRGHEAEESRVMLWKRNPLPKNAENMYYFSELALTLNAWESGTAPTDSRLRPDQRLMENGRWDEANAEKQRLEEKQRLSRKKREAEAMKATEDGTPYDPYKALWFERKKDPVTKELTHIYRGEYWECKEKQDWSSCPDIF
OSBP (oxysterol-binding protein), sequence (O75344 whole entry partner): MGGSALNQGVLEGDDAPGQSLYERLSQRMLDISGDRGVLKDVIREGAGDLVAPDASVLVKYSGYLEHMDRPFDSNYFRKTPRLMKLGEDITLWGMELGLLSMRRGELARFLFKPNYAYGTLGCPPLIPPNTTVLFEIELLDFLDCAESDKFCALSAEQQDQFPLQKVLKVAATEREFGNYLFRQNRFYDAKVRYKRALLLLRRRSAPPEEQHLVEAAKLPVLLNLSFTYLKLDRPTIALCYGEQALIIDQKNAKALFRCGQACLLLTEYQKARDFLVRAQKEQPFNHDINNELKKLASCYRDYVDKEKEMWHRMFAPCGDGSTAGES

## COc1ccc(C(=O)O[C@H]2[C@H](O[C@@H]3[C@@H](OC(C)=O)[C@H](O[C@H]4C[C@H]5[C@@H]6CC=C7C[C@@H](O)CC[C@]7(C)[C@H]6CC[C@]5(C)[C@@]4(O)[C@H](C)C(=O)CCC(C)C)OC[C@@H]3O)OC[C@@H](O)[C@@H]2O)cc1 [OSW-1]
  EC50: 60 nM
